# Results from the supplement of paper PMC3974653.
# Structures can show the parent of a compound that is named as a salt.
# Tested on: MTT (mouse pheochromocytoma)
# Assay: IC50 of cell viability (ATP content)
# Conditions: (24 or 48 h)
# Outline: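 CellTiter-Glo ATP luminescence, read after 15 minutes, was used to assess MTT mouse pheochromocytoma cells treated for 24 or 48 hrs with library compounds (final 0.5 nM to 46 µM, 8 concentrations). The cells had been plated at 5 µl of 200,000 cells/ml per well in white 1536-well plates in DMEM with 5% FBS and 1% horse serum and cultured overnight at 37°C, 5% CO2. Normalisation set positive-control wells to 100% and DMSO wells to 0%. The IC50 was then determined by four-parameter logistic fitting.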
row,SMILES,IC50 of cell viability [µM]
1,ClC1=CC\2=C(OC3=C(C=CC=C3)\N=C2N4CCNCC4)C=C1 [AMOXAPINE],> 46
2,CC(=O)N[C@@H](CCC(=O)O)C(=O)O [DEANOLI ACEGLUMAS],> 46
3,Br.CC(N)Cc1ccc(O)cc1 (stereo not drawn) [HYDROXYAMPHETAMINE HYDROBROMIDE],> 46
4,NC(=O)CN1CC(O)CC1=O (stereo not drawn) [Oxiracetam],> 46
5,O=C(N/N=C/c1ccc([N+](=O)[O-])o1)c1cc([N+](=O)[O-])cc([N+](=O)[O-])c1O [Nifursol],> 46
6,NC(=O)OCCCc1ccccc1 [Phenprobamate],> 46
7,ClC1=CC=C(C=C1)C(C#N)C2=C(Cl)C=C(C=C2Cl)N3\N=C/C(=O)NC3=O (stereo not drawn) [DICLAZURIL],> 46
8,C[C@@]12CCC[C@H]1[C@@H]1CC[C@H]3C[C@@H](O)CC[C@]3(C)[C@H]1CC2,> 46
9,CN1CCN(C2Cc3ccccc3Sc3ccc(Cl)cc32)CC1.O=C(O)/C=C\C(=O)O (stereo not drawn) [(?)-Octoclothepin maleate],> 46
10,CN(C)\C1=C(/C)N(C)N(C2=CC=CC=C2)C1=O [4-Dimethylaminoantipyrine],> 46
11,C[C@@H](Cc1ccccc1)NCCC(c1ccccc1)c1ccccc1.C[C@H](O)C(=O)O [Prenylamine lactate],> 46
12,CCOc1ccccc1OCCN[C@H](C)Cc1ccc(OC)c([S+](N)(=O)[O-])c1 [TAMSULOSIN HYDROCHLORIDE],> 46
13,NC(=O)OCC(COC(N)=O)c1ccccc1 [FELBAMATE],> 46
14,CCC1OC(=O)C(C)[C@@H](O[C@H]2C[C@@](C)(OC)C(O)C(C)O2)C(C)[C@@H](O[C@@H]2OC(C)CC(N(C)C)C2O)[C@@](C)(O)CC(C)C(=O)[C@@H](C)C(O)[C@]1(C)O (stereo partly drawn) [ERYTHROMYCIN],> 46
15,C[C@H]1OC(OC2C(O)[C@@H](O)C(OC3C(O)[C@@H](O)C(O)O[C@@H]3CO)O[C@@H]2CO)[C@H](O)C(O)C1N[C@H]1C=C(CO)[C@@H](O)[C@H](O)C1O (stereo partly drawn) [Acarbose],> 46
16,C=CCNC(N)=S [Allylthiourea],> 46
17,CC/C(=C(/CC)c1ccc(OP(=O)(O)O)cc1)c1ccc(OP(=O)(O)O)cc1 [DIETHYLSTILBESTROL DIPHOSPHATE],> 46
18,C#C[C@]1(O)CC[C@H]2[C@@H]3CCC4=CCCC[C@@H]4[C@H]3C(=C)C[C@@]21CC [DESOGESTREL],> 46
19,Nc1cc(-c2ccncc2)c[nH]c1=O [Amrinone],> 46
20,CC(C)=CCC/C(C)=C/CC/C(C)=C/CCC(=O)OC/C=C(\C)CCC=C(C)C [Geranyl farnesylacetate],> 46
21,"COc1cc(OC)cc(OC)c1 [1,3,5-TRIMETHOXYBENZENE]",> 46
22,ClC(Cl)Cl [Chloroform],> 46
23,N[S+](=O)([O-])c1cc(-c2nnn[nH]2)c(NCc2cccs2)cc1Cl [AZOSEMIDE],> 46

row,SMILES,IC50 of cell viability [µM]
1,COc1cc(CCN)c(OC)cc1Br,> 46
2,CCOc1ccc(NC(=O)CC(C)O)cc1 (stereo not drawn) [Bucetin],> 46
3,CCCCCCOc1ccccc1C(N)=O [EXALAMIDE],> 46
4,CCCC(C)(COC(N)=O)COC(=O)NC1CC1 (stereo not drawn) [Lorbamate],> 46
5,"Cc1cc(C)cc(C(=O)OC2CC3CCC(C2)N3C)c1 (stereo not drawn) [TROPANYL 3,5-DIMETHYLBENZOATE]",> 46
6,CC(=O)O[C@H]1CC[C@H]2[C@@H]3CCC4=CC(=O)CCC4=C3C=C[C@]12C [TRENBOLONE ACETATE],> 46
7,CCN1CC(CCN2CCOCC2)C(c2ccccc2)(c2ccccc2)C1=O (stereo not drawn) [DOXAPRAM HYDROCHLORIDE],> 46
8,Cc1cc(CC(=O)O)c(C)n1-c1ccc(Cl)cc1 [Clopirac],> 46
9,CC1=CC=CC(=C1N\C2=N\CCCS2)C [XYLAZINE],> 46
10,CC1(O)CCC2C3CCC4=CC(=O)CCC4(C)C3(F)C(O)CC21C (stereo not drawn) [Fluoxymesterone],> 46
11,CC(C)C(=O)c1c(C(C)C)nn2ccccc12 [Ibudilast],> 46
12,CC(C)CCC(=O)OC1CCC2C3CCC4=CC(=O)CC[C@]4(C)C3CC[C@]12C (stereo partly drawn) [TESTOSTERONE ISOCAPROATE],> 46
13,C[C@H](C(=O)[O-])c1cccc(Oc2ccccc2)c1.C[C@H](C(=O)[O-])c1cccc(Oc2ccccc2)c1.O.O.[Ca+2] [Fenoprofen calcium salt dihydrate],> 46
14,CCC1OC(=O)C(C)[C@@H](O[C@H]2C[C@@](C)(OC)C(O)C(C)O2)C(C)[C@@H](O[C@@H]2OC(C)CC(N(C)C)C2O)[C@@](C)(OC)CC(C)C(=O)[C@@H](C)C(O)[C@]1(C)O (stereo partly drawn) [CLARITHROMYCIN],> 46
15,CC1(C)SC2[C@@H](/N=C/N3CCCCCC3)C(=O)N2[C@H]1C(=O)O (stereo partly drawn) [Amdinocillin],> 46
16,[Na+].CC1=C(C(=O)N[C@H]2[C@H]3SC(C)(C)[C@H]([N@]3C2=O)C([O-])=O)C(=NO1)C4=C(Cl)C=CC=C4 [Cloxacillin sodium salt],> 46
17,O=C1CCCCC1CN1CCCCC1 (stereo not drawn) [Pimeclone],> 46
18,CC(=O)Oc1ccc(C2(c3ccc(OC(C)=O)cc3)Oc3ccccc3NC2=O)cc1 [Bisoxatin Acetate],> 46
19,"CCCC(=O)c1cc(O)c(O)cc1O [1-(2,4,5-trihydroxyphenyl)-1-butanone]",> 46
20,"CC(O)CO (stereo not drawn) [1,2-Propylene glycol]",> 46
21,OC(=O)\C1=C\N(C2CC2)C3=CC(=C(F)C=C3C1=O)N4CCNCC4 [Ciprofloxacin hydrochloride],> 46
22,COc1ccc(C[C@H](C)NC[C@@H](O)c2ccc(O)c(NC=O)c2)cc1 [Formoterol hemifumarate],> 46
23,CCC[C@@H]1C(=O)N2N(C1=O)\C(=N/C3=C2C=C(C)C=C3)N(C)C [Azapropazone],> 46

# Continued, values first:
row,IC50 of cell viability [µM],SMILES
1,> 46,NC(N)=N[S+](=O)([O-])c1ccc(N)cc1 [Sulfaguanidine]
2,> 46,COc1cc(C(=O)N2CCCCCCC2)cc(OC)c1OC [TROCIMINUM]
3,> 46,NC(=O)N[C@@H](CCC(=O)O)C(=O)O [N-CARBAMYL-L-GLUTAMIC ACID]
4,> 46,CC[C@H]1OC(=O)C[C@@H](O)[C@H](C)[C@@H](O[C@@H]2O[C@H](C)C[C@H](N(C)C)[C@@H]2O)[C@@H](CC=O)C[C@@H](C)C(=O)/C=C\[C@]2(C)O[C@H]2[C@@H]1C [Rosaramicin]
5,> 46,Cc1ccccc1OCC(O)CO (stereo not drawn) [MEPHENESIN]
6,> 46,O=C(Nc1ccc(O)cc1)c1ccccc1O [Osalmid]
7,> 46,CC(=O)N1CCN(c2ccc(OC[C@@H]3CO[C@@](Cn4ccnc4)(c4ccc(Cl)cc4Cl)O3)cc2)CC1 [Ketoconazole]
8,> 46,CC(C)=CCC/C(C)=C\CC/C(C)=C\CC/C(C)=C\CC1=C(C)C(=O)c2ccccc2C1=O [Vitamin K2]
9,> 46,CCCN(CCC)CCc1cccc2c1CC(=O)N2 [ROPINROLE]
10,> 46,CC(C)(C)C(=O)Oc1ccc([S+](=O)([O-])Nc2ccccc2C(=O)NCC(=O)[O-])cc1.O.O.O.O.[Na+] [SIVELESTAT SODIUM HYDRATE]
11,> 46,NC(=O)NNc1ccccc1 [PHENICARBAZIDUM]
12,> 46,CCCn1cnc2c1c(=O)n(CCCCC(C)=O)c(=O)n2C [PROPENTOFYLLINE]
13,> 46,COc1ccc(-c2noc(CC(=O)O)c2-c2ccc(OC)cc2)cc1 [MOFEZOLAC]
14,> 46,CC(C)(C)C(=O)OCOC(=O)[C@@H]1[N@]2[C@@H](SC1(C)C)[C@H](\N=C/N3CCCCCC3)C2=O [Pivmecillinam hydrochloride]
15,> 46,CC(C)NCC(O)c1ccc(N[S+](C)(=O)[O-])cc1 (stereo not drawn) [SOTALOL]
16,> 46,OC[C@H]1O[C@@H]2O[C@H]3[C@H](O)[C@@H](O)[C@@H](O[C@H]4[C@H](O)[C@@H](O)[C@@H](O[C@H]5[C@H](O)[C@@H](O)[C@@H](O[C@H]6[C@H](O)[C@@H](O)[C@@H](O[C@H]7[C@H](O)[C@@H](O)[C@@H](O[C@H]1[C@H](O)[C@H]2O)O[C@@H]7CO)O[C@@H]6CO)O[C@@H]5CO)O[C@@H]4CO)O[C@@H]3CO [alpha-Cyclodextrin]
17,> 46,NCCCCC(NC(=O)C1CCCN1C(=O)C1CSSCC(N)C(=O)NC(Cc2ccc(O)cc2)C(=O)NC(Cc2ccccc2)C(=O)NC(CCC(N)=O)C(=O)NC(CC(N)=O)C(=O)N1)C(=O)NCC(N)=O (stereo not drawn) [[Lys8]-Vasopressin]
18,> 46,O.O.O=C([O-])[C@H](CC(=O)N1C[C@H]2CCCC[C@H]2C1)Cc1ccccc1.O=C([O-])[C@H](CC(=O)N1C[C@H]2CCCC[C@H]2C1)Cc1ccccc1.[Ca+2] [MITIGLINIDE CALCIUM HYDRATE]
19,> 46,CSc1ccc(/C=C2/C(C)=C(CC(=O)O)c3cc(F)ccc32)cc1 [Sulindac sulfide]
20,> 46,CCc1c(C)[nH]c2c1C(=O)[C@H](CN1CCOCC1)CC2 [Molindone hydrochloride]
21,> 46,CC[N+](C)(CC)CCOC(=O)C1c2ccccc2Oc2ccccc21 [Methantheline bromide]
22,> 46,CC1=C(CC(=O)O)c2cc(F)ccc2/C1=C\c1ccc([S+](C)(=O)[O-])cc1 [Sulindac sulfone]
